Assay results as given in patent publication US9682940B2, “Indazole derivatives useful as CB-1 inverse agonists” (Janssen Pharmaceutica NV, priority 2015, dated 2017).

Assays:
[1] = biological target: Human CB1R (Cannabanoid receptor 1) (Homo sapiens (Human), UniProt P21554); test: CB-1 in vitro cAMP (HTRF) assay in HEK-293 cells; assay type: cell-based; details: HEK-293 cells stably transfected with human CB1R, 250 nM Forskolin, mean where tested more than once, read-out: CB-1 (HEK_cAMP) EC50
Outline: (§1)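 HEK-293 cells stably expressing human CB1 or CB2 plated overnight, then tested in HBSS/5 mM HEPES/0.1% BSA with 0.5 mM IBMX and forskolin (1.5 μM working dilution). Intracellular cAMP quantified by competitive HTRF immunoassay (d2-cAMP, cryptate anti-cAMP) against a cAMP standard curve; compounds as 1/3 serial dilutions from 10 mM DMSO stocks.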

[2] = biological target: Human CB2R (Cannabanoid receptor 2) (Homo sapiens (Human), UniProt P34972); test: CB-2 in vitro cAMP (HTRF) assay in HEK-293 cells; assay type: cell-based; details: HEK-293 cells stably transfected with human CB2R, 250 nM Forskolin, mean where tested more than once, read-out: CB-2 (HEK_cAMP) EC50
Outline: as §1

Sequence of Human CB1R (Cannabanoid receptor 1) (P21554 whole entry): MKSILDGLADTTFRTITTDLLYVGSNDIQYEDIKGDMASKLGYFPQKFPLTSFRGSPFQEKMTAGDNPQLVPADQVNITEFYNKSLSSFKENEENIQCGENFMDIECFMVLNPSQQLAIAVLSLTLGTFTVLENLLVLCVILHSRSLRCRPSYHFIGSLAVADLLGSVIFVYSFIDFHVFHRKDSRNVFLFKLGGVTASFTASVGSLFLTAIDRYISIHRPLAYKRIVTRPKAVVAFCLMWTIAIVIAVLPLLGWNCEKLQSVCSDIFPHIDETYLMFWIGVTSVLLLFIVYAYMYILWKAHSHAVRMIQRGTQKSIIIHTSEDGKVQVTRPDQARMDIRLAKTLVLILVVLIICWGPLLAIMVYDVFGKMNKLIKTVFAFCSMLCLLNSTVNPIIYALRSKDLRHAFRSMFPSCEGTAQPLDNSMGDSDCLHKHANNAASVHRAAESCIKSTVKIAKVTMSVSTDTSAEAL
Sequence of Human CB2R (Cannabanoid receptor 2) (P34972 whole entry): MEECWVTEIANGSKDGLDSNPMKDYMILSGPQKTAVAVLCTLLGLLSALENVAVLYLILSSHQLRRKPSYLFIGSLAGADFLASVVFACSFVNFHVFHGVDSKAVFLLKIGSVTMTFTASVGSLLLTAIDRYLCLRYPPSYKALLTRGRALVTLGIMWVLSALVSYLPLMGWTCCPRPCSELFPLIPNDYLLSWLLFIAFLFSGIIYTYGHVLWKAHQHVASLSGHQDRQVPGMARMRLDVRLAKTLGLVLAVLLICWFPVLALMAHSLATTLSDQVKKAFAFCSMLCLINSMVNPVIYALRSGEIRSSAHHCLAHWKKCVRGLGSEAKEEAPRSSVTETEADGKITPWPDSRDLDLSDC

| EC50 [1] [nM] | EC50 [2] [nM] | Compound |
| --- | --- | --- |
| 85 | > 10000 | O=C(O)c1cccc(S(=O)(=O)N2CCC(c3nn(CCO)c4ccc(C(c5ccc(Cl)cc5)c5ccc(Cl)cc5)cc34)CC2)c1 [Compound 68] |
| 82 | > 10000 | NC(=O)c1cccc(S(=O)(=O)N2CCC(c3nn(CCO)c4ccc(C(c5ccc(Cl)cc5)c5ccc(Cl)cc5)cc34)CC2)c1 [Compound 82] |
| 324 | > 10000 | O=C(O)c1cccc(N2CCC(c3nn(C4CC4)c4ccc(C(c5ccc(Cl)cc5)c5ccc(Cl)cc5)cc34)CC2)c1 [Compound 178] |
| 169 | > 10000 | NC(=O)CCC(=O)N1CCC(c2n[nH]c3ccc(C(c4ccc(Cl)cc4)c4ccc(Cl)cc4)cc23)CC1 [Compound 43] |
| 7080 | > 10000 | O=C(O)COc1ccc(N2CCC(c3nn(C4CC4)c4ccc(C(c5ccc(Cl)cc5)c5ccc(Cl)cc5)cc34)CC2)cc1 [Compound 192] |
| 11 | > 10000 | NC(=O)c1cccc(S(=O)(=O)N2CCC(c3c4cc(C(c5ccc(Cl)cc5)c5ccc(Cl)cc5)ccc4nn3C3CC3)CC2)c1 [Compound 140, 3-(4-(5-(bis(4-chlorophenyl)methyl)-2-cyclopropyl-2H-indazol-3-yl)piperidin-1-ylsulfonyl)benzamide] |
| 179 | > 10000 | CC(C)S(=O)(=O)N1CCC(Nc2n[nH]c3ccc(C(c4ccc(Cl)cc4)c4ccc(Cl)cc4)cc23)CC1 [Compound 78] |
| 1650 | > 10000 | O=C(O)CC(=O)N1CCC(c2n[nH]c3ccc(C(c4ccc(Cl)cc4)c4ccc(Cl)cc4)cc23)CC1 [Compound 41] |
| 202 | > 10000 | NC(=O)c1ccccc1S(=O)(=O)N1CCC(c2c3cc(C(c4ccc(Cl)cc4)c4ccc(Cl)cc4)ccc3nn2C2CC2)CC1 [Compound 139] |
| 12 | > 10000 | NC(=O)c1cc(S(=O)(=O)N2CCC(c3c4cc(C(c5ccc(Cl)cc5)c5ccc(Cl)cc5)ccc4nn3C3CC3)CC2)ccc1F [Compound 163, 5-(4-(5-(bis(4-chlorophenyl)methyl)-2-cyclopropyl-2H-indazol-3-yl)piperidin-1-ylsulfonyl)-2-fluorobenzamide] |
| 170 | > 10000 | CCOC(=O)CS(=O)(=O)N1CCC(c2n[nH]c3ccc(C(c4ccc(Cl)cc4)c4ccc(Cl)cc4)cc23)CC1 [Compound 21] |
| 134 | > 10000 | O=C(CO)N1CCC(c2c3cc(C(c4ccc(Cl)cc4)c4ccc(Cl)cc4)ccc3nn2C2CC2)CC1 [Compound 110] |
| 7800 | > 10000 | O=C(O)Cc1ccc(N2CCC(c3nn(C4CC4)c4ccc(C(c5ccc(Cl)cc5)c5ccc(Cl)cc5)cc34)CC2)cc1 [Compound 181] |
| 5 | > 10000 | CNC(=O)c1ccc(S(=O)(=O)N2CCC(c3c4cc(C(c5ccc(Cl)cc5)c5ccc(Cl)cc5)ccc4nn3C3CC3)CC2)cc1F [Compound 176, 4-(4-(5-(bis(4-chlorophenyl)methyl)-2-cyclopropyl-2H-indazol-3-yl)piperidin-1-ylsulfonyl)-2-fluoro-N-methylbenzamide] |
| 216 | > 10000 | NC(=O)CCS(=O)(=O)N1CCC(c2c3cc(C(c4ccc(Cl)cc4)c4ccc(Cl)cc4)ccc3nn2C2CC2)CC1 [Compound 134] |
| 4 | > 10000 | NC(=O)c1ccc(S(=O)(=O)N2CCC(c3c4cc(C(c5ccc(Cl)cc5)c5ccc(Cl)cc5)ccc4nn3C3CC3)CC2)cc1 [Compound 118, 4-(4-(5-(bis(4-chlorophenyl)methyl)-2-cyclopropyl-2H-indazol-3-yl)piperidin-1-ylsulfonyl)benzamide] |
| 17 | > 10000 | NC(=O)c1ccc(S(=O)(=O)N2CCC(c3c4cc(C(c5ccc(Cl)cc5)c5ccc(Cl)cc5)ccc4nn3C3CC3)CC2)cc1Cl [Compound 153, 4-(4-(5-(bis(4-chlorophenyl)methyl)-2-cyclopropyl-2H-indazol-3-yl)piperidin-1-ylsulfonyl)-2-chlorobenzamide] |
| 345 | > 10000 | O=C(O)c1ccc(C(=O)N2CCC(c3nn(C4CC4)c4ccc(C(c5ccc(Cl)cc5)c5ccc(Cl)cc5)cc34)CC2)cc1 [Compound 99] |

| EC50 [1] [nM] | EC50 [2] [nM] | Compound |
| --- | --- | --- |
| 6010 | > 10000 | O=C(O)c1ccccc1C(=O)N1CCC(c2nn(C3CC3)c3ccc(C(c4ccc(Cl)cc4)c4ccc(Cl)cc4)cc23)CC1 [Compound 103] |
| 27 | > 10000 | O=S(=O)(C1CC1)N1CCC(c2n[nH]c3ccc(C(c4ccc(Cl)cc4)c4ccc(Cl)cc4)cc23)CC1 [Compound 54] |
| 1630 | > 10000 | O=C(O)c1ccc(C(c2ccc(Cl)cc2)c2ccc3[nH]nc(C4CCN(S(=O)(=O)C(F)(F)F)CC4)c3c2)cn1 (stereo not drawn) [Compound 241] |
| 13 | > 10000 | NC(=O)c1ccc(S(=O)(=O)N2CCC(c3c4cc(C(c5ccc(Cl)cc5)c5ccc(Cl)cc5)ccc4nn3C3CC3)CC2)cn1 [Compound 165, 5-(4-(5-(bis(4-chlorophenyl)methyl)-2-cyclopropyl-2H-indazol-3-yl)piperidin-1-ylsulfonyl)picolinamide] |
| 474 | 9300 | O=C(O)c1ccc(N2CCC(c3c4cc(C(c5ccc(Cl)cc5)c5ccc(Cl)cc5)ccc4nn3C3CC3)CC2)cc1 [Compound 193] |
| 428 | > 10000 | NC(=O)c1ccccc1S(=O)(=O)N1CCC(c2nn(CCO)c3ccc(C(c4ccc(Cl)cc4)c4ccc(Cl)cc4)cc23)CC1 [Compound 70] |
| 26 | > 10000 | COc1ccc(S(=O)(=O)N2CCC(c3c4cc(C(c5ccc(Cl)cc5)c5ccc(Cl)cc5)ccc4nn3C3CC3)CC2)cc1C(=O)O [Compound 164, 5-(4-(5-(bis(4-chlorophenyl)methyl)-2-cyclopropyl-2H-indazol-3-yl)piperidin-1-ylsulfonyl)-2-methoxybenzoic acid] |
| 152 | > 10000 | COC(=O)CC(=O)N1CCC(c2n[nH]c3ccc(C(c4ccc(Cl)cc4)c4ccc(Cl)cc4)cc23)CC1 [Compound 51] |
| 716 | 3100 | NC(=O)CC(=O)N1CCC(c2nn(C3CC3)c3ccc(C(c4ccc(Cl)cc4)c4ccc(Cl)cc4)cc23)CC1 [Compound 90] |
| 1280 | > 10000 | O=C(O)COc1cccc(N2CCC(c3n[nH]c4ccc(C(c5ccc(Cl)cc5)c5ccc(Cl)cc5)cc34)CC2)c1 [Compound 216] |
| 13 | > 10000 | O=S(=O)(N1CCC(c2nn(-c3ccc(Cl)c(Cl)c3)c3ccc(C(c4ccc(Cl)cc4)c4ccc(Cl)cc4)cc23)CC1)C(F)(F)F [Compound 58] |
| 15 | > 10000 | NC(=O)c1ccc(C(c2ccc(Cl)cc2)c2ccc3nn(C4CC4)c(C4CCN(S(=O)(=O)C(F)(F)F)CC4)c3c2)cc1 (stereo not drawn) [Compound 249, 4-((4-chlorophenyl)(2-cyclopropyl-3-(1-(trifluoromethylsulfonyl)piperidin-4-yl)-2H-indazol-5-yl)methyl)benzamide] |
| 151 | > 10000 | COC(=O)c1ccc(S(=O)(=O)N2CCC(c3n[nH]c4ccc(C(c5ccc(Cl)cc5)c5ccc(Cl)cc5)cc34)CC2)cc1 [Compound 24] |
| 762 | > 10000 | O=C(O)Cn1nc(C2CCN(S(=O)(=O)C(F)(F)F)CC2)c2cc(C(c3ccc(Cl)cc3)c3ccc(Cl)cc3)ccc21 [Compound 73] |
| 1030 | 4100 | NC(=O)COc1ccc(N2CCC(c3n[nH]c4ccc(C(c5ccc(Cl)cc5)c5ccc(Cl)cc5)cc34)CC2)cc1 [Compound 217] |
| 2080 | > 10000 | NC(=O)COc1ccc(N2CCC(c3n[nH]c4ccc(C(c5ccc(Cl)cc5)c5ccc(Cl)cc5)cc34)CC2)cc1 [Compound 224] |
| 3 | > 10000 | COc1ccc(S(=O)(=O)N2CCC(c3c4cc(C(c5ccc(Cl)cc5)c5ccc(Cl)cc5)ccc4nn3C3CC3)CC2)cc1C(N)=O [Compound 158, 5-(4-(5-(bis(4-chlorophenyl)methyl)-2-cyclopropyl-2H-indazol-3-yl)piperidin-1-ylsulfonyl)-2-methoxybenzamide] |
| 25 | > 10000 | NC(=O)c1cccc(S(=O)(=O)N2CCC(c3n[nH]c4ccc(C(c5ccc(Cl)cc5)c5ccc(Cl)cc5)cc34)CC2)c1 [Compound 65] |

| Compound | EC50 [1] [nM] | EC50 [2] [nM] |
| --- | --- | --- |
| NC(=O)c1ccc(CN2CCC(c3nn(C4CC4)c4ccc(C(c5ccc(Cl)cc5)c5ccc(Cl)cc5)cc34)CC2)cc1 [Compound 210] | 134 | > 10000 |
| O=C(O)c1cncc(CN2CCC(c3c4cc(C(c5ccc(Cl)cc5)c5ccc(Cl)cc5)ccc4nn3C3CC3)CC2)c1 [Compound 255, 5-((4-(5-(bis(4-chlorophenyl)methyl)-2-cyclopropyl-2H-indazol-3-yl)piperidin-1-yl)methyl)nicotinic acid] | 34 | > 10000 |
| O=C(O)c1cccc(CN2CCC(c3nn(C4CC4)c4ccc(C(c5ccccc5)c5ccc(Cl)cc5)cc34)CC2)c1 (stereo not drawn) [Compound 245] | 20 | > 10000 |
| Cc1ccc(C(c2ccc(C)cc2)c2ccc3c(c2)c(C2CCN(Cc4cccc(C(=O)O)c4)CC2)nn3C2CC2)cc1 [Compound 244] | 48 | > 10000 |
| O=C(O)c1csc(CN2CCC(c3nn(C4CC4)c4ccc(C(c5ccc(Cl)cc5)c5ccc(Cl)cc5)cc34)CC2)c1 [Compound 227] | 84 | > 10000 |
| O=C(O)c1cccc(CN2CCC(c3c4cc(C(c5ccc(Cl)cc5)c5ccc(Cl)cc5)ccc4nn3C3CC3)CC2)c1 [Compound 257, 3-((4-(5-(bis(4-chlorophenyl)methyl)-2-cyclopropyl-2H-indazol-3-yl)piperidin-1-yl)methyl)benzoic acid] | 13 | > 5000 |
